Measurements published in US20130131116A1, “PEST CONTROL COMPOSITION” (SUMITOMO CHEMICAL COMPANY, LIMITED, priority 2010, published 2013).

Test system: Haemaphysalis longicornis
Assay: Test Example 3: Insecticidal Test on Haemaphysalis longicornis By Treating Glass Surface
Assay type: in vivo
Conditions: Haemaphysalis longicornis, 48 h, read-out: Mortality Rate (%)
Procedure: Acetone solutions were each prepared for the present hydrazide compounds and the present ester compounds. To inner walls of a glass screw tube and lid (NO. 5, manufactured by Maruemu Corporation), 0.2 mL of the acetone solution was uniformly applied. […] The lid is closed tightly, and the number of dead ticks is examined after 2 days.
`CN(NC(=O)CCC(F)(F)F)c1cc(C2=NOC(c3cc(Cl)cc(Cl)c3)(C(F)(F)F)C2)ccc1Cl` (stereo not drawn) [Present hydrazide compound (31), N′-methyl-N′-{2-chloro-5-[5-(3,5-dichlorophenyl)-5-trifluoromethyl-4,5-dihydroisoxazol-3-yl]phenyl}-4,4,4-trifluorobutyrohydrazide] gave a mortality at 0.0064 mg/m2 of 3.3%. `O=C(CCC(F)(F)F)NNc1cc(C2=NOC(c3cc(Cl)cc(Cl)c3)(C(F)(F)F)C2)ccc1Cl` (stereo not drawn) [Present hydrazide compound (17), N′-{5-[5-(3,5-dichlorophenyl)-5-trifluoromethyl-4,5-dihydroisoxazol-3-yl]-2-chlorophenyl}-4,4,4-trifluorobutyrohydrazide] showed a mortality at 0.032 mg/m2 of 3.3% and a mortality at 0.16 mg/m2 of 40%. `CC(C)=CC1(C=C(Cl)Cl)C(C(=O)OCc2cccc(Oc3ccccc3)c2)C1(C)C` (stereo not drawn) [Present ester compound (2), 3-phenoxybenzyl 3-(2,2-dichlorovinyl)-2,2-dimethyl-3-(2-methylprop-1-enyl)cyclopropanecarboxylate, reference compound] gave a mortality at 0.8 mg/m2 of 13%.

Same assay, conditions: ester compound alone 0.8 mg/m^2, glass surface, after 2 days
With `CC(C)=C[C@@H]1[C@@H](C(=O)O[C@H](C#N)c2cccc(Oc3ccccc3)c2)C1(C)C` (relative stereo) [Present ester compound (3), (1S)-α-cyano-3-phenoxybenzyl (1R)-trans-2,2-dimethyl-3-(2-methylprop-1-enyl)cyclopropanecarboxylate, reference compound] the “Mortality Rate (%)” value was 10%.

Same assay, conditions: ester compound alone 4 mg/m^2, glass surface, after 2 days
In the case of “3-phenoxybenzyl (1R)-cis/trans-2,2-dimethyl-3-(2-methylprop-1-enyl)cyclopropanecarboxylate [Present ester compound (1), reference compound]”, the “Mortality Rate (%)” value is reported as 15%.

Test system: not given
Assay: not given
Conditions: not given
With `CC(=O)N(NC(=O)c1ccccc1)c1cc(C2=NOC(c3cc(Cl)cc(Cl)c3)(C(F)(F)F)C2)ccc1Cl` (stereo not drawn) the melting point was 107 °C. For `O=C(/C=C/c1ccccc1)NNc1cc(C2=NOC(c3cc(Cl)cc(Cl)c3)(C(F)(F)F)C2)ccc1Cl` (stereo not drawn), the melting point was 205 °C. With `FC(F)(F)C1(c2cc(Cl)cc(Cl)c2)CC(c2ccc(Cl)c(NNC(=S)NC3CCCCC3)c2)=NO1` (stereo not drawn) the melting point was 126 °C. In the case of `CC(C)(C)OC(=O)N(NC(=O)C1CC1)c1cc(C2=NOC(c3cc(Cl)cc(Cl)c3)(C(F)(F)F)C2)ccc1Cl` (stereo not drawn), the melting point is reported as 180 °C. For `CCC(=O)NNc1cc(C2=NOC(c3cc(Cl)cc(Cl)c3)(C(F)(F)F)C2)ccc1Cl` (stereo not drawn), the melting point was 92 °C. `CC(=O)NNc1cccc(C2=NOC(c3cc(Cl)cc(Cl)c3)(C(F)(F)F)C2)c1` (stereo not drawn) showed a melting point of 100 °C. With `O=C(NNc1cc(C2=NOC(c3cc(Cl)cc(Cl)c3)(C(F)(F)F)C2)ccc1Cl)c1ccccc1` (stereo not drawn) the melting point was 105 °C. For `CC(=O)N(C)N(C(=O)OC(C)(C)C)c1cccc(C2=NOC(c3cc(Cl)cc(Cl)c3)(C(F)(F)F)C2)c1` (stereo not drawn), the melting point was 79 °C. `Cc1ccc(C2=NOC(c3cc(Cl)cc(Cl)c3)(C(F)(F)F)C2)cc1NNC(=O)OC(C)C` (stereo not drawn) showed a melting point of 71 °C. Compound `CC(=O)N(NC(=O)C1CC1)c1cc(C2=NOC(c3cc(Cl)cc(Cl)c3)(C(F)(F)F)C2)ccc1Cl` (stereo not drawn) has a melting point of 160 °C. `O=C(NNc1cc(C2=NOC(c3cc(Cl)cc(Cl)c3)(C(F)(F)F)C2)ccc1Cl)c1ccncc1` (stereo not drawn) showed a melting point of 115 °C. In the case of `CC(=O)N(C)N(C)c1cccc(C2=NOC(c3cc(Cl)cc(Cl)c3)(C(F)(F)F)C2)c1` (stereo not drawn), the melting point is reported as 151 °C. `CC(=O)NNc1cc(C2=NOC(c3cc(Cl)cc(Cl)c3)(C(F)(F)F)C2)ccc1Cl` (stereo not drawn) showed a melting point of 94 °C. `C=CC(=O)NNc1cc(C2=NOC(c3cc(Cl)cc(Cl)c3)(C(F)(F)F)C2)ccc1Cl` (stereo not drawn) gave a melting point of 90 °C. With `CC(=O)NN(C(=O)c1ccccc1)c1cc(C2=NOC(c3cc(Cl)cc(Cl)c3)(C(F)(F)F)C2)ccc1Cl` (stereo not drawn) the melting point was 142 °C. For `O=C(NNc1cc(C2=NOC(c3cc(Cl)cc(Cl)c3)(C(F)(F)F)C2)ccc1Cl)C(F)(F)F` (stereo not drawn), the melting point was 64 °C. `FC(F)(F)C1(c2cc(Cl)cc(Cl)c2)CC(c2ccc(Cl)c(NNC(=S)Nc3ccccc3)c2)=NO1` (stereo not drawn) gave a melting point of 213 °C. With `O=C(NNc1cc(C2=NOC(c3cc(Cl)cc(Cl)c3)(C(F)(F)F)C2)ccc1Cl)Nc1ccccc1` (stereo not drawn) the melting point was 131 °C. `CC(=O)NN(C(C)=O)c1cc(C2=NOC(c3cc(Cl)cc(Cl)c3)(C(F)(F)F)C2)ccc1Cl` (stereo not drawn) gave a melting point of 108 °C. `O=C(NNc1cc(C2=NOC(c3cc(Cl)cc(Cl)c3)(C(F)(F)F)C2)ccc1Cl)c1cccnc1` (stereo not drawn) gave a melting point of 205 °C. For `COc1ccc(C(=O)NNc2cc(C3=NOC(c4cc(Cl)cc(Cl)c4)(C(F)(F)F)C3)ccc2Cl)cc1` (stereo not drawn), the melting point was 131 °C. In the case of `O=C(NN(C(=O)c1ccccc1)c1cc(C2=NOC(c3cc(Cl)cc(Cl)c3)(C(F)(F)F)C2)ccc1Cl)C1CC1` (stereo not drawn), the melting point is reported as 172 °C. `CN(C)C(=O)NNc1cc(C2=NOC(c3cc(Cl)cc(Cl)c3)(C(F)(F)F)C2)ccc1Cl` (stereo not drawn) showed a melting point of 212 °C. In the case of `O=C(CCC(F)(F)F)NN(C(=O)c1ccccc1)c1cc(C2=NOC(c3cc(Cl)cc(Cl)c3)(C(F)(F)F)C2)ccc1Cl` (stereo not drawn), the melting point is reported as 157 °C. In the case of `O=C(NNc1cc(C2=NOC(c3cc(Cl)cc(Cl)c3)(C(F)(F)F)C2)ccc1Cl)c1ccc([N+](=O)[O-])cc1` (stereo not drawn), the melting point is reported as 231 °C. In the case of `COCC(=O)NN(C(C)=O)c1cc(C2=NOC(c3cc(Cl)cc(Cl)c3)(C(F)(F)F)C2)ccc1Cl` (stereo not drawn), the melting point is reported as 164 °C. Compound `O=C(NNc1cc(C2=NOC(c3cc(Cl)cc(Cl)c3)(C(F)(F)F)C2)ccc1Cl)Nc1ccc([N+](=O)[O-])cc1` (stereo not drawn) has a melting point of 201 °C. `C=CC(=O)NN(C(=O)OC(C)(C)C)c1cc(C2=NOC(c3cc(Cl)cc(Cl)c3)(C(F)(F)F)C2)ccc1Cl` (stereo not drawn) showed a melting point of 119 °C. In the case of `CC(=O)N(C)Nc1cccc(C2=NOC(c3cc(Cl)cc(Cl)c3)(C(F)(F)F)C2)c1` (stereo not drawn), the melting point is reported as 88 °C. In the case of `CCCC(=O)NNc1cc(C2=NOC(c3cc(Cl)cc(Cl)c3)(C(F)(F)F)C2)ccc1Cl` (stereo not drawn), the melting point is reported as 82 °C.
